Assay results taken from patent publication US9333197B2, “Apoptosis signal-regulating kinase inhibitor” (Gilead Sciences, Inc., priority 2012, dated 2016).
Where two headings read alike, the source gives them in different places.

Experiments:
[1] = target: CYP3A4 (Homo sapiens (Human), UniProt P08684); experiment: Cytochrome P450 inhibition IC50, CYP3A4 (midazolam and testosterone); assay type: in vitro ADME; details: for IC50: comparative table, testosterone substrate, read-out: Cyp3A4 IC50 Testesterone (TST)
Chain of CYP3A4 (P08684 whole entry): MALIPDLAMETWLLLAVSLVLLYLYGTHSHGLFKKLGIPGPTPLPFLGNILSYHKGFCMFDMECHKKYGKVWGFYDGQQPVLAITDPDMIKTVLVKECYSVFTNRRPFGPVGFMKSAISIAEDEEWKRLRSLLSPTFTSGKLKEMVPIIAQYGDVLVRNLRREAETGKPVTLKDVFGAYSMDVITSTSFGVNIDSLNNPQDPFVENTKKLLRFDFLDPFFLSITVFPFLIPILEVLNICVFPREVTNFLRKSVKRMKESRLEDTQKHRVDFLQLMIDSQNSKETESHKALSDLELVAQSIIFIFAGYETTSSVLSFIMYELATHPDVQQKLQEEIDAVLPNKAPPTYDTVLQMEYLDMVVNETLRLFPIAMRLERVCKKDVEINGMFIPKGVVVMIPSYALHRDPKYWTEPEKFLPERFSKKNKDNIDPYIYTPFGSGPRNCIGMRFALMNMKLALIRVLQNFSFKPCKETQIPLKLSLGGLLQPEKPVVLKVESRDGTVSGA

[2] = test system: Caco-2 cells; experiment: Determination of CACO-2 efflux ratio / permeability; assay type: in vitro ADME; details: for CACO A→B: apical to basolateral; for CACO B→A: basolateral to apical
Protocol: (§1) Caco-2 cells were maintained in Dulbecco's Modification of Eagle's Medium (DMEM) with sodium pyruvate, Glutmax supplemented with 1% Pen/Strep, 1% NEAA and 10% fetal bovine serum in an incubator set at 37° C., 90% humidity and 5% CO2. Caco-2 cells between passage 62 and 72 were seeded at 2100 cells/well and were grown to confluence over at least 21-days on 24 well PET (polyethylene-terephthalate) plates (BD Biosciences). The receiver well contained HBSS buffer (10 mM HEPES, 15 mM Glucose with pH adjusted to pH 6.5) supplemented with 1% BSA pH adjusted to pH 7.4. After an initial equilibration with transport buffer, TEER values were read to test membrane integrity. Buffers containing test compounds were added and 100 μl of solution was taken at 1 and 2 hrs from the receiver compartment. Removed buffer was replaced with fresh buffer and a correction is applied to all calculations for the removed material. The experiment was carried out in replicate. All samples were immediately collected into 400 μl 100% acetonitrile acid to precipitate protein and stabilize test compounds. Cells were dosed on the apical or basolateral side to determine forward (A to B) and reverse (B to A) permeability. Permeability through a cell free trans-well is also determined as a measure of cellular permeability through the membrane and non-specific binding. To test for non-specific binding and compound instability percent recovery is determined. Samples were analyzed by LC/MS/MS.
(§2) Vr and Vd is the volume in the receiver and donor compartment in cm^3, respectively. A is the area of the cell monolayer (0.33 cm^2). D0 and D120 is the measured donor concentration at the beginning and end of the experiment, respectively. R120 is the receiver concentration at the end of the experiment (120 minutes).

[3] = Rat pharmacokinetics, 1 mg/kg IV infusion and 5.0 mg/kg PO; assay type: in vivo; details: for clearance / Vd: 1 mg/kg IV infusion; for clearance: read-out: CL in rats (converted); for Vd: read-out: Vss in rats; for bioavailability: 5.0 mg/kg PO, read-out: oral bioavailability (% F) in rats
Protocol: For IV administration the test compound was formulated in 60:40 PEG 400:water with 1 equivalent HCl at 0.5 mg/mL.
For PO (oral) administration, the test compound was formulated in 5/75/10/10 ethanol/PG/solutol/water at 2.5 mg/mL.
IV and PO dosing groups each consisted of 3 male SD rats. […] The animals were fasted overnight prior to dose administration and up to 4 hr after dosing.
For the IV infusion group, the test compound was administered by intravenous infusion over 30 minutes. The rate of infusion was adjusted according to the body weight of each animal to deliver a dose of 1 mg/kg at 2 mL/kg. For the oral dosing group, the test article was administered by oral gavage at 2 mL/kg for a dose of 5.0 mg/kg.
Serial venous blood samples (approximately 0.4 mL each) were taken at specified time points after dosing from each animal. The blood samples were collected into Vacutainer™ tubes (Becton-Disckinson Corp, New Jersey, USA) containing EDTA as the anti-coagulant and were immediately placed on wet ice pending centrifugation for plasma.
An LC/MS/MS method was used to measure the concentration of test compound in plasma.
Non-compartmental pharmacokinetic analysis was performed on the plasma concentration-time data.

[4] = Determination of CACO-2 efflux ratio / permeability; assay type: in vitro ADME; details: human, Caco-2, pH 7.4; read-out: Efflux ratio (B/A)/(A/B)
Protocol: as §1, §2

[5] = target: ASK1 (Rattus norvegicus, UniProt A0A8I6AEL0); experiment: ASK1 293 cell-based assay (cellular EC50), AP-1:luciferase reporter
Chain of ASK1 (A0A8I6AEL0 1-1381): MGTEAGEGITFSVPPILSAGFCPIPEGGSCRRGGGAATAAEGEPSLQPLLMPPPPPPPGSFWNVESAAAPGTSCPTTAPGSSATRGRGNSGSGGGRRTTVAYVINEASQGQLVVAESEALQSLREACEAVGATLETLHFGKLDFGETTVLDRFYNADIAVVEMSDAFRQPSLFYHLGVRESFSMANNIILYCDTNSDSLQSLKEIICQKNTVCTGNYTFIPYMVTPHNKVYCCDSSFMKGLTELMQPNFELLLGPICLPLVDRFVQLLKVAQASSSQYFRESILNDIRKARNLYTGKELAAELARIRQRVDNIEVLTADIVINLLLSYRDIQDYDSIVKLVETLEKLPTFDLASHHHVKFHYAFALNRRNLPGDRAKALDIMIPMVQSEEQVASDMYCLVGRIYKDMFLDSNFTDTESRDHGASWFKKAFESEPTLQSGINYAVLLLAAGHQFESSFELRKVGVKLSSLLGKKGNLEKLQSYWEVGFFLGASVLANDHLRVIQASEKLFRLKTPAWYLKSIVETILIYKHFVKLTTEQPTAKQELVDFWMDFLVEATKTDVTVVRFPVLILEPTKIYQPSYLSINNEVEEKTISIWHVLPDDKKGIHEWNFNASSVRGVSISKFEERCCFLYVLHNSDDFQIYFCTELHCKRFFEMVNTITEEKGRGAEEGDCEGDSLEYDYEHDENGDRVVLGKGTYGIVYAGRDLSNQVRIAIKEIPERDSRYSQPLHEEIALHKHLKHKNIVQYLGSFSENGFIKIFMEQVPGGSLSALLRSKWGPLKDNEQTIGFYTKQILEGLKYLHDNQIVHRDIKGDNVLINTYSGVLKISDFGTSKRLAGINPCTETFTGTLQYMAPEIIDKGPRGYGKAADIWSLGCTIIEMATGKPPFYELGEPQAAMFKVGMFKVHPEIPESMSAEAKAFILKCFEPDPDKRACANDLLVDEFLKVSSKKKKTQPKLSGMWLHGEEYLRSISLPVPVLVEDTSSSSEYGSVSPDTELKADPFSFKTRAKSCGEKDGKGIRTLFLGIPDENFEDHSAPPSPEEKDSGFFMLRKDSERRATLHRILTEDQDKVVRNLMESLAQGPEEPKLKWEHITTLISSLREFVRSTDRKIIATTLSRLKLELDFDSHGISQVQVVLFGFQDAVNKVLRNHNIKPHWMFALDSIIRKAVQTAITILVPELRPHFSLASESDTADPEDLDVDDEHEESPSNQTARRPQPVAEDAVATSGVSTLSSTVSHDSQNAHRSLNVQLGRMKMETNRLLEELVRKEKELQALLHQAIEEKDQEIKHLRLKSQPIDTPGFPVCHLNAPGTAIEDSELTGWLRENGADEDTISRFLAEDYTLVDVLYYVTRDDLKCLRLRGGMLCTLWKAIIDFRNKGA
Protocol: 2. […] Promega Steady-Glo Luciferase Assay System product insert. 3. Media Required Complete Growth Medium, “CGM” DMEM (MediaTech) 10% FBS 1% PSG 100 ug/mL HygromycinB Assay Medium, “AM” DMEM (Invitrogen) 25 mM HEPES 1 mM Sodium Pyruvate 1% PSG 4. Methods Maintenance:
Count cells and dilute to 1.5×10^5 cells per mL; add adenovirus such that there are 5 infectious forming units per cell.
Prime (20 to 30 mL) and plate cells in Greiner poly-D-Lysine coated 384-well plates at 1.2×10^4 cells per well using BioTek uFill (80 uL per well).
Immediately dose plates with 0.4 uL of compound dose series (in 100% DMSO) incubate 24 hours in humidified incubator (37° C., 5% CO2).
Process plates (per manufacturer's instructions) as follows:
Remove 60 uL of AM from assay wells
Add 20 uL per well Steady-Glo Firefly substrate, let sit for 10-20 minutes at room temperature
Acquire data on a fluorescence plate reader

[6] = 3 h, 2 μM, pH 7.4
Protocol: 1 mL Teflon dialysis cells from Harvard Apparatus (Holliston, Mass., USA) were used in these experiments. […] A nominal concentration of 2 μM of compound was spiked into 1 mL of plasma or 1 mL of cell culture media. The total volume of liquid on each side of the cell was 1 mL. After 3 hours equilibration in a 37° C. water bath, samples from each side of the cell were aliquoted into the appropriate vials containing either 1 mL of human plasma (cell culture media), or buffer. Sample vials were weighed and recorded. […] Samples were vortexed and centrifuged for 15 minutes at 12000 G. 200 μL of the supernatant was removed and placed into a new 96 well plate. An additional 200 μL of 1:1 ACN:water was added. The plate was then vortexed and subjected to LC-MS analysis. The percent unbound for an analyte in plasma was calculated using the following equations % Unbound=100(Cf/Ct) where Cf and Ct are the post-dialysis buffer and plasma concentrations, respectively.

[7] = Sprague-Dawley, rat, plasma, male SD rats

CC(C)n1cnnc1-c1cccc(NC(=O)c2cccc(-n3cnc(C4CC4)c3)c2)n1 [Compound A]
number of times compound of formula (I) shows an improvement over the indicated compound: Cyp3A4 IC50 (TST) [1]: 10 X | IC50 [1]: 1100 nM | CACO A→B [2]: 3.1 | CACO B→A [2]: 18.5 | clearance [3, 7]: 5 mL/min/kg | Vd [3, 7]: 0.17 L/kg | bioavailability [3, 7]: 11% | t1/2 in rats ([3]; male SD rats): 0.59 h | number of times compound of formula (I) shows an improvement over the indicated compound: % F in rats ([3]; rat, in vivo): 6.8 X | number of times compound of formula (I) shows an improvement over the indicated compound: CL in rats ([3]; rat, in vivo): 2.7 X | number of times compound of formula (I) shows an improvement over the indicated compound: Vss in rats ([3]; rat, in vivo): 3.2 X | number of times compound of formula (I) shows an improvement over the indicated compound: t½ in rats ([3]; rat, in vivo): 8.6 X

Cc1ccc(C(=O)Nc2cccc(-c3nncn3C3CC3)n2)cc1-n1cnc(C2CC2)c1 [Compound B]
number of times compound of formula (I) shows an improvement over the indicated compound: Cyp3A4 IC50 (TST) [1]: 2.8 X | number of times compound of formula (I) shows an improvement over the indicated compound: Cyp3A4 IC50/PBAdj.EC50 [1]: 92 X | IC50 [1]: 4000 nM | Cyp3A4 IC50/PBAdj.EC50 ([1]; ratio of Cyp3A4 inhibition and protein binding adjusted EC50): 7 | CACO A→B [2]: 0.26 | CACO B→A [2]: 4 | efflux ratio at 120 min [4]: 15.4 | number of times compound of formula (I) shows an improvement over the indicated compound: EC50 [5]: 9 X | number of times compound of formula (I) shows an improvement over the indicated compound: PBadj EC50 [5]: 33 X | EC50 ([5]; 293/AP1-Luc cells infected with adenovirus expressing kinase active ASK1, 24 hours): 18 nM | EC50 ([5]; protein binding adjusted EC50, read-out: PBadj EC50): 563 nM | clearance [3, 7]: 6.5 mL/min/kg | Vd [3, 7]: 0.54 L/kg | bioavailability [3, 7]: 50% | half-life ([3]; Sprague-Dawley, rat, plasma, male SD rats, read-out: t1/2 in rats (converted)): 1.3 h | number of times compound of formula (I) shows an improvement over the indicated compound: % F in rats ([3]; rat, in vivo): 1.5 X | number of times compound of formula (I) shows an improvement over the indicated compound: CL in rats ([3]; rat, in vivo): 3.6 X | number of times compound of formula (I) shows an improvement over the indicated compound: t½ in rats ([3]; rat, in vivo): 3.9 X

Cc1cc(F)c(C(=O)Nc2cccc(-c3nncn3C(C)C)n2)cc1-n1cnc(C2CC2)c1 [compound of formula (I), 5-(4-cyclopropyl-1H-imidazol-1-yl)-N-(6-(4-isopropyl-4H-1,2,4-triazol-3-yl)pyridin-2-yl)-2-fluoro-4-methylbenzamide]
percent unbound measured in human plasma [6]: 11.94% | Vd ([3]; rat, plasma, male SD rats): 0.55 L/kg | bioavailability ([3]; rat, plasma, male SD rats): 75%
